The text below walks through data of patent US20110311613A1, “TOPICAL FORMULATIONS OF FLAP INHIBITORS FOR THE TREATMENT OF DERMATOLOGICAL CONDITIONS” (AMIRA PHARMACEUTICAL, INC., priority 2008, published 2011).

Series [1] has as its system cysteinyl leukotriene (CysLT). Put plainly: Mouse arachidonic acid-induced ear inflammation model, leukotriene analysis (EIA) of CysLT. It is filed as in vivo. As for the experimental part: (§1) A mouse arachidonic acid (AA)—induced ear inflammation model was utilized to determine the extent of inhibition of ear swelling and leukotriene (LT) production by oral and topical application of a 5-lipoxygenase-activating protein (FLAP) inhibitor. Methods were adapted from Byrum et al., J Exp Med. 1997 Mar. 17; 185(6):1065-75).
(§2) Female CD-1 mice (weighing 18-20 grams) were administered compound orally (30 mg/kg in 10 ml/kg of 0.5% methylcellulose vehicle) or topically at concentrations of 0.01-10% by weight to the experimental ear and vehicle was applied to the opposite control ear. Four hours following compound administration a […] aliquot of a 4 mg/ml solution of AA in ethanol was applied to the experimental (right) ear and vehicle (ethanol) was applied to the control (left) ear. Thirty minutes later mice were placed into an enclosed Plexiglas chamber and exposed to CO2 for a period of 1-2 minutes or until breathing ceased. Ear biopsies were then taken for assessment of inflammation and leukotriene levels.
(§3) The ear punch was placed into a tris buffer containing 0.01% triton x and homogenized using a polytron probe homogenizer. The sample was then centrifuged at 10,000×g for 10 minutes at 4° C. Leukotriene B4 (LTB4) and cysteinyl leukotriene (CysLT) concentrations in the supernatant were determined by enzyme-immunoassay (EIA).

Series [2] deals with arachidonic acid-induced ear inflammation. Put plainly: Mouse arachidonic acid-induced ear inflammation model, ear inflammation (ear punch weight). It is filed as in vivo. As for the experimental part: as §1, §2
An eight mm ear punch was taken from a similar location of each experimental ear and each control ear and weighed. The extent of inflammation was determined by the difference in weight between the experimental ear and control ear [experimental ear (mg)-control ear (mg)]. A typical response for this assay is in the range of 4 and 12 mg increase in weight. Ear punches were then frozen for later assessment of leukotrienes.

Series [3] is described as follows: Solubility in topical formulation (75% propylene glycol, 15% transcutol, 10% water). It is filed as physicochemical. Particulars: aqueous with cosolvent or surfactant or cyclodextrin, solution of 75% propylene glycol, read-out: soluble in topical formulation. As for the experimental part: In one aspect, a topical formulation of a FLAP inhibitor compound is prepared by mixing a FLAP inhibitor compound with propylene glycol, transcutol and water. In one aspect, the topical formulation includes a FLAP inhibitor compound (10 mg/mL) in a solution of 75% propylene glycol, 15% transcutol, 10% water.
Using this formulation, the following FLAP inhibitor compounds are all soluble at 10 mg/mL: Compound A (Na salt), Compound B (Na salt), Compound C (acid and Na salt), Compound F (Na salt), Compound G (Na salt), Compound I (acid), and Compound J (Na salt).

Another series has as its system Leukotriene B4 (LTB4). Put plainly: Mouse arachidonic acid-induced ear inflammation model, leukotriene analysis (EIA) of LTB4. It is filed as in vivo. As to the method:
as §1, §2, §3

A short description of series [4]: Rat abraded skin model, skin penetration (plasma levels) following dermal administration. It is filed as in vivo. Particulars: for plasma levels (PK analysis): abraded skin, samples at 2, 4, 24 and 72 hours; for concentration at 24 h: male, Sprague Dawley, plasma, topical, 20 mg, 2 mL of 10 mg/mL solution on abraded skin, occluded 24 hours, read-out: plasma levels at the 24 hour time point. As for the experimental part: (§4) Male Sprague Dawley Rats (n=3 per group) were shaved on the back such that approximately 20% of the body area surface was exposed. The shaved skin was mildly abraded then 2 mL of a 10 mg/mL solution of the test compound in a formulation containing 75% propylene glycol, 15% transcutol, 10% water was applied to the abraded skin. The site of administration was occluded for 24 hours after which time the skin was cleansed of excess material (if any). Plasma samples were drawn from each rat at 2, 4, 24 and 72 hours.

For another series, the system named is Male Sprague Dawley Rats. Put plainly: Rat abraded skin model, acute irritancy (Draize scoring) following dermal administration. It is filed as in vivo. As to conditions: 2 mL of 10 mg/mL solution on abraded skin, occluded 24 hours; erythema, edema scored at 24, 48 and 72 hours; each animal. As to the method:
as §4
Visual analysis of erythema, edema or other dermal findings were recorded prior to dosing then at 24, 48 and 72 hours. Scoring followed a Draize protocol.

The conditions of series [5]: mouse, in vivo, 10 mg/kg.
Experimental: (§5) BALB/c mice were divided into groups and acclimatized in cages for 24 hours (day 0). The control group was exposed to air and the test group was exposed to smoke from seven unfiltered cigarettes per day for 8 days (day 1 to day 8). […] On day 14, bronchioalveolar lavage fluid (BALF) is tested for influx of cells, cytokines, chemokines (e.g., KC, IL-17, MIP-2, IL-6), mucin, and/or proteins. Lung histology is also examined.
The nature of series [6]: Trough plasma concentration in subchronic smoking mouse model. As to conditions: BALB/c mice, combination DP2 receptor antagonist + FLAP inhibitor.
Experimental: as §5

Where two headings read alike, the source gives them in different places. A value given as a limit tells only on which side of the number the result lay.

For `COc1cnc(-c2ccc(Cn3c(CC(C)(C)C(=O)O)c(SC(C)(C)C)c4cc(OCc5ccc(C)cn5)ccc43)cc2)nc1` [Compound A, 3-[3-tert-Butylsulfanyl-1-[4-(5-methoxy-pyrimidin-2-yl)-benzyl]-5-(5-methyl-pyridin-2-ylmethoxy)-1H-indol-2-yl]-2,2-dimethyl-propionic acid], the “reduction of CysLT levels” value in series [1] (applied dermally 4 hours prior to AA treatment (FIG. 3C)) is on record as “about 37%”; in series [1] (oral, 30 mg/kg, 4 hours prior to AA treatment (FIG. 2C)), “about 57%”. The “reduction of inflammation by measure of change in ear weight” value in series [2] (applied dermally 4 hours prior to AA treatment (FIG. 3A)) is on record as “about 60%”; in series [2] (oral, 30 mg/kg, 4 hours prior to AA treatment (FIG. 2A)), “about 65%”. Moreover, the “topical concentration of maximal activity” value in series [2] (topical concentrations of 0.01-10%, all three endpoints (ear weight, LTB4, CysLT)) came to 0.1%. Also, the solubility in series [3] was ≥ 10000 µg/mL. Also, the “reduction of LTB4 levels” value in the series with Leukotriene B4 (LTB4) (applied dermally 4 hours prior to AA treatment (FIG. 3B)) is listed as “about 55%”; in the series with Leukotriene B4 (LTB4) (oral, 30 mg/kg, 4 hours prior to AA treatment (FIG. 2B)) it was “about 33%”. For the same compound, the “plasma levels (PK analysis)” value in series [4] is “measurable plasma levels”. The concentration at 24 h in series [4] is < 110 ng/mL. In the series on Male Sprague Dawley Rats, this compound showed a Draize score of 0.
`COc1cnc(-c2ccc(Cn3c(CC(C)(C)C(=O)O)c(SC(C)(C)C)c4cc(OCc5cnc(C)cn5)ccc43)cc2)nc1` [Compound B, 3-[3-tert-Butylsulfanyl-1-[4-(5-methoxy-pyrimidin-2-yl)-benzyl]-5-(5-methyl-pyrazin-2-ylmethoxy)-1H-indol-2-yl]-2,2-dimethyl-propionic acid]: the solubility in series [3] was ≥ 10000 µg/mL. Moreover, in series [4], the “plasma levels (PK analysis)” value is on record as “measurable plasma levels” and the concentration at 24 h is < 110 ng/mL. Besides, the Draize score in the series with Male Sprague Dawley Rats worked out at 0.
For `COc1cnc(-c2ccc(Cn3c(CC(C)(C)C(=O)O)c(SC(C)(C)C)c4cc(OC[C@@H]5Cc6ccccc6N5C(C)=O)ccc43)cc2)nc1` [Compound C, 3-{5-((S)-1-Acetyl-2,3-dihydro-1H-indol-2-ylmethoxy)-3-tert-butylsulfanyl-1-[4-(5-methoxy-pyrimidin-2-yl)-benzyl]-1H-indol-2-yl}-2,2-dimethyl-propionic acid], the solubility in series [3] was ≥ 10000 µg/mL. In series [4], the “plasma levels (PK analysis)” value is reported as “measurable plasma levels” and the concentration at 24 h is < 110 ng/mL. The compound further had a Draize score in the series with Male Sprague Dawley Rats of 0.
For `CC(C)(C)Sc1c(CC(C)(C)C(=O)O)n(Cc2ccc(-c3ccc(F)cn3)cc2)c2ccc(OCc3ccc4ccccc4n3)cc12` [Compound F, 3-[3-tert-Butylsulfanyl-1-[4-(5-fluoro-pyridin-2-yl)-benzyl]-5-(quinolin-2-ylmethoxy)-1H-indol-2-yl]-2,2-dimethyl-propionic acid], the solubility in series [3] is ≥ 10000 µg/mL. For the same compound, in series [4], the “plasma levels (PK analysis)” value is reported as “measurable plasma levels” and the concentration at 24 h is < 110 ng/mL. Also, the Draize score in the series on Male Sprague Dawley Rats worked out at 0.
The corresponding values for `CCC(CC)(Cc1c(SC(C)(C)C)c2cc(OCc3ccc(C)cn3)ccc2n1Cc1ccc(-c2ncc(OC)cn2)cc1)C(=O)O` [Compound G, 2-[3-tert-Butylsulfanyl-1-[4-(5-methoxy-pyrimidin-2-yl)-benzyl]-5-(5-methyl-pyridin-2-ylmethoxy)-1H-indol-2-ylmethyl]-2-ethyl-butyric acid] are ≥ 10000 µg/mL, “measurable plasma levels”, < 110 ng/mL and 0.
Take `CC(=O)N1CCC[C@H]1COc1ccc2c(c1)c(SC(C)(C)C)c(CC(C)(C)C(=O)O)n2Cc1ccc(Cl)cc1` [Compound I, 3-[5-((S)-1-Acetyl-pyrrolidin-2-ylmethoxy)-3-tert-butylsulfanyl-1-(4-chloro-benzyl)-1H-indol-2-yl]-2,2-dimethyl-propionic acid]: the solubility in series [3] is ≥ 10000 µg/mL. In series [4], the “plasma levels (PK analysis)” value was “measurable plasma levels” and the concentration at 24 h was < 110 ng/mL. In the series on Male Sprague Dawley Rats, the Draize score is 0.
For `CC(C)(C)Sc1c(CC(C)(C)C(=O)O)n(Cc2ccc(-c3ccc(F)cn3)cc2)c2ccc(OCc3ccccn3)cc12` [Compound J, 3-[3-tert-butylsulfanyl-1-[4-(5-fluoro-pyridin-2-yl)-benzyl]-5-(pyridin-2-ylmethoxy)-1H-indol-2-yl]-2,2-dimethyl-propionic acid], in series [3], the solubility is ≥ 10000 µg/mL. Moreover, in series [4], the “plasma levels (PK analysis)” value is reported as “measurable plasma levels” and the concentration at 24 h is < 110 ng/mL. The same compound yielded a Draize score in the series on Male Sprague Dawley Rats of 0.
Regarding `CCN(Cc1cc(C(F)(F)F)ccc1-c1cncc(CC(=O)O)c1)C(=O)OCc1ccccc1` [DP2 receptor antagonist], in series [5], the “Plasma concentration @ trough” value is listed as <10 nM.
Regarding `COc1ccc(-c2ccc(Cn3c(CC(C)(C)C(=O)O)c(SC(C)(C)C)c4cc(OCc5ccc(C)cn5)ccc43)cc2)cn1` [FLAP inhibitor, 3-(3-(tert-butylthio)-1-(4-(6-methoxypyridin-3-yl)benzyl)-5-((5-methylpyridin-2-yl)methoxy)-1H-indol-2-yl)-2,2-dimethylpropanoic acid], the “Plasma concentration @ trough” value in series [6] is reported as 136 (FLAP inhibitor) nM.
